Reference: US20070128217A1 (priority 2003, published 2007)

What was measured:
[1] = system: antibodies in sera from SARS patients (sera 1a, 1b, 2, 6, 37, 62, London, SARS-yellow, SARS-green); format: binding, human; design: Binding of serum 6 to linear peptides of protein X1 of SARS-CoV Urbani / Binding of serum 37 to linear peptides of protein X1 of SARS-CoV Urbani / Binding of serum 6 to looped/cyclic peptide (PEPSCAN-ELISA) / Binding of serum 37 to looped/cyclic peptide (PEPSCAN-ELISA) / Binding of serum 37 to looped/cyclic peptides of protein X1 of SARS-CoV Urbani / Binding of serum 6 to linear peptides of protein X2 / Binding of serum 37 to linear peptides of protein X2 / Binding of serum 37 to looped/cyclic peptides of protein X2 of SARS-CoV Urbani / Binding of serum 6 to linear peptides of protein M of SARS-CoV Urbani / Binding of serum 37 to linear peptides of protein M of SARS-CoV Urbani / Binding of serum 6 to looped/cyclic peptides of protein M of SARS-CoV Urbani / Binding of serum 37 to looped/cyclic peptides of protein M of SARS-CoV Urbani / Binding of serum 6 to linear peptides of protein X3 of SARS-CoV Urbani / Binding of serum 37 to linear peptides of protein X3 of SARS-CoV Urbani / Binding of serum 37 to looped/cyclic peptides of protein X3 of SARS-CoV Urbani / Binding of serum 6 to linear peptides of protein X4 of SARS-CoV Urbani / Binding of serum 37 to linear peptides of protein X4 of SARS-CoV Urbani / Binding of serum 37 to looped/cyclic peptides of protein X4 of SARS-CoV Urbani / Binding of serum 6 to linear peptides of protein X5 of SARS-CoV Urbani / Binding of serum 37 to linear peptides of protein X5 of SARS-CoV Urbani / Binding of serum 37 to looped/cyclic peptides of protein X5 of SARS-CoV Urbani / Binding of serum 6 to linear peptides of protein N of SARS-CoV Urbani / Binding of serum 37 to linear peptides of protein N of SARS-CoV Urbani / Binding of serum 6 to linear peptide (PEPSCAN-ELISA) / Binding of serum 1a to looped/cyclic peptides of protein N of SARS-CoV Urbani / Binding of serum 1b to looped/cyclic peptides of protein N of SARS-CoV Urbani / Binding of serum 2 to looped/cyclic peptides of protein N of SARS-CoV Urbani / Binding of serum 6 to looped/cyclic peptides of protein N of SARS-CoV Urbani / Binding of serum 37 to looped/cyclic peptides of protein N of SARS-CoV Urbani / Binding of serum 62 to looped/cyclic peptides of protein N of SARS-CoV Urbani / Binding of serum London to looped/cyclic peptides of protein N of SARS-CoV Urbani / Binding of serum SARS-green to looped/cyclic peptides of protein N of SARS-CoV Urbani: unit not given here
[2] = system: control sera (pooled serum of ten healthy LUMC hospital workers; commercial negative donor pooled serum from the Dutch bloodbank); format: binding, human; design: Binding of Control serum LUMC to linear peptides / Binding of Control serum Blood-bank to linear peptides / Binding of Control serum LUMC to looped peptides / Binding of Control Serum Blood-Bank to Looped peptides / Binding of Control serum LUMC to linear peptides of the protein M of SARS-CoV Urbani / Binding of Control serum Blood-bank to linear peptides of the protein M of SARS-CoV Urbani / Binding of Control serum LUMC to looped peptides of the protein M of SARS-CoV Urbani / Binding of Control Serum Blood-Bank to Looped peptides of the protein M of SARS-CoV Urbani: unit not given here
[3] = system: rabbit serum obtained by immunizing a rabbit with the SARS-CoV strain Frankfurt 1; format: binding; design: Binding of a rabbit serum to linear peptides / Binding of a rabbit serum to looped peptides / Rabbit serum linear peptides / Rabbit serum looped peptides / Binding of a rabbit serum to linear peptides of protein N of SARS-CoV Urbani (Rabbit serum linear peptides) / Binding of a rabbit serum to looped/cyclic peptides of protein N of SARS-CoV Urbani (Rabbit serum looped peptides): unit not given here

**Q.** LYDANYFVCWHTHNY was tested. Which “Binding of serum 1a to linear peptides of protein X1 of SARS-CoV Urbani” value [1] did it give?
**A.** 0.9

**Q.** And the “Binding of serum 1a to looped/cyclic peptide (PEPSCAN-ELISA)” value [1]?
**A.** 0.6

**Q.** And the “Binding of serum 1b to linear peptides of protein X1 of SARS-CoV Urbani” value [1]?
**A.** 0.8

**Q.** And the “Binding of serum 1b to looped/cyclic peptide (PEPSCAN-ELISA)” value [1]?
**A.** 0.5

**Q.** What about the “Binding of serum 2 to linear peptides of protein X1 of SARS-CoV Urbani” value [1] of the same sequence?
**A.** 0.5

**Q.** And the “Binding of serum 2 to looped/cyclic peptide (PEPSCAN-ELISA)” value [1]?
**A.** 0.4

**Q.** And the “Binding of serum 6 to linear peptides of protein X1 of SARS-CoV Urbani” value [1]?
**A.** 0.7

**Q.** And the “Binding of serum 6 to looped/cyclic peptide (PEPSCAN-ELISA)” value [1]?
**A.** 0.4

**Q.** And the “Binding of serum 37 to linear peptides of protein X1 of SARS-CoV Urbani” value [1]?
**A.** 0.8

**Q.** And the “Binding of serum 37 to looped/cyclic peptide (PEPSCAN-ELISA)” value [1]?
**A.** 0.6

**Q.** What about the “Binding of serum 62 to linear peptides of protein X1 of SARS-CoV Urbani” value [1] of the same sequence?
**A.** 0.8

**Q.** And the “Binding of serum 62 to looped/cyclic peptide (PEPSCAN-ELISA)” value [1]?
**A.** 0.6

**Q.** And the “Binding of serum London to linear peptides of protein X1 of SARS-CoV Urbani” value [1]?
**A.** 0.4

**Q.** And the “Binding of serum London to looped/cyclic peptide (PEPSCAN-ELISA)” value [1]?
**A.** 0.2

**Q.** And the “Binding of serum SARS-green to linear peptides of protein X1 of SARS-CoV Urbani” value [1]?
**A.** 0.4

**Q.** And the “Binding of serum SARS-green to looped/cyclic peptide (PEPSCAN-ELISA)” value [1]?
**A.** 0.3

**Q.** What about the “Binding of serum SARS-yellow to linear peptides of protein X1 of SARS-CoV Urbani” value [1] of the same sequence?
**A.** 0.5

**Q.** And the “Binding of serum SARS-yellow to looped/cyclic peptide (PEPSCAN-ELISA)” value [1]?
**A.** 0.3

**Q.** And the “Binding of Control Serum Blood-Bank to Looped peptides” value [2]?
**A.** 0.7

**Q.** And the “Binding of Control serum Blood-bank to linear peptides” value [2]?
**A.** 0.8

**Q.** What about the “Binding of Control serum LUMC to linear peptides” value [2] of the same sequence?
**A.** 0.7

**Q.** And the “Binding of Control serum LUMC to looped peptides” value [2]?
**A.** 0.5

**Q.** And the “Binding of a rabbit serum to linear peptides” value [3]?
**A.** 0.1

**Q.** And the “Binding of a rabbit serum to looped peptides” value [3]?
**A.** 0.5

**Q.** Which “Binding of serum 1a to linear peptides of protein M of SARS-CoV Urbani” value [1] does the source give for LYIIKLVFLWLLWPV here?
**A.** 0.8

**Q.** What about the “Binding of serum 1a to looped/cyclic peptides of protein M of SARS-CoV Urbani” value [1] of the same sequence?
**A.** 0.6

**Q.** What about the “Binding of serum 1b to linear peptides of protein M of SARS-CoV Urbani” value [1] of the same sequence?
**A.** 0.6

**Q.** And the “Binding of serum 1b to looped/cyclic peptides of protein M of SARS-CoV Urbani” value [1]?
**A.** 0.5

**Q.** What about the “Binding of serum 2 to linear peptides of protein M of SARS-CoV Urbani” value [1] of the same sequence?
**A.** 0.6

**Q.** And the “Binding of serum 2 to looped/cyclic peptides of protein M of SARS-CoV Urbani” value [1]?
**A.** 0.5

**Q.** What about the “Binding of serum 6 to linear peptides of protein M of SARS-CoV Urbani” value [1] of the same sequence?
**A.** 0.4

**Q.** What about the “Binding of serum 6 to looped/cyclic peptides of protein M of SARS-CoV Urbani” value [1] of the same sequence?
**A.** 0.7

**Q.** And the “Binding of serum 37 to linear peptides of protein M of SARS-CoV Urbani” value [1]?
**A.** 0.4

**Q.** And the “Binding of serum 37 to looped/cyclic peptides of protein M of SARS-CoV Urbani” value [1]?
**A.** 0.6

**Q.** What about the “Binding of serum 62 to linear peptides of protein M of SARS-CoV Urbani” value [1] of the same sequence?
**A.** 0.4

**Q.** And the “Binding of serum 62 to looped/cyclic peptides of protein M of SARS-CoV Urbani” value [1]?
**A.** 0.6

**Q.** What about the “Binding of serum London to linear peptides of protein M of SARS-CoV Urbani” value [1] of the same sequence?
**A.** 0.3

**Q.** And the “Binding of serum London to looped/cyclic peptides of protein M of SARS-CoV Urbani” value [1]?
**A.** 0.2

**Q.** What about the “Binding of serum SARS-green to linear peptides of protein M of SARS-CoV Urbani” value [1] of the same sequence?
**A.** 0.5

**Q.** What about the “Binding of serum SARS-green to looped/cyclic peptides of protein M of SARS-CoV Urbani” value [1] of the same sequence?
**A.** 0.3

**Q.** And the “Binding of serum SARS-yellow to linear peptides of protein M of SARS-CoV Urbani” value [1]?
**A.** 0.2

**Q.** What about the “Binding of serum SARS-yellow to looped/cyclic peptides of protein M of SARS-CoV Urbani” value [1] of the same sequence?
**A.** 0.3

**Q.** And the “Binding of Control Serum Blood-Bank to Looped peptides of the protein M of SARS-CoV Urbani” value [2]?
**A.** 0.7

**Q.** What about the “Binding of Control serum Blood-bank to linear peptides of the protein M of SARS-CoV Urbani” value [2] of the same sequence?
**A.** 0.7

**Q.** What about the “Binding of Control serum LUMC to linear peptides of the protein M of SARS-CoV Urbani” value [2] of the same sequence?
**A.** 0.7

**Q.** What about the “Binding of Control serum LUMC to looped peptides of the protein M of SARS-CoV Urbani” value [2] of the same sequence?
**A.** 0.6

**Q.** What about the “Rabbit serum linear peptides” value [3] of the same sequence?
**A.** 0.1

**Q.** And the “Rabbit serum looped peptides” value [3]?
**A.** 0.3
